Measurements from patent US7354904B2, “Bacteriocin inducer peptides” (priority 2005, dated 2008).

Key:
C. jejuni = experiment: Spot Test, antagonistic activity of isolated signal peptides; type: cell-based, Campylobacter jejuni; conditions: isolated signal peptide
Method: (§1) The antagonistic activity of the bacteriocins produced when using the signal peptide and an inducer strain of bacteria against C. jejuni and S. enteritidis was assessed using a Spot Test. The steps included taking various concentrations of pure preparation (μg/ml) of the bacteriocin in approximately 10 microliters of volume plated onto blood-supplemented Campylobacter agar or Nutrient agar (MPA or Meta Peptone Agar) previously seeded with cells of target bacteria. Plates containing cultures of C. jejuni were grown at about 42° C., under microaerobic conditions. Plates containing S. enteritidis were grown at about 37° C. under aerobic conditions. Activity of the bacteriocin was expressed in arbitrary units (AU) per one milliliter of the preparation at which a visible zone of inhibition of the growth of culture appears (Henderson et al., Archives of Biochemistry and Biophysics, Volume 295, 5-12, 1992; herein incorporated by reference). Specific activity can also expressed as arbitrary units per milligram of pure bacteriocin.
(§2) Its activity was about 200 AU/ml and its molecular weight was about 2.5 kDa, as determined by SDS-PAGE electrophoresis. The isoelectric point (pI) was about 7.9 (FIGS. 1A and 1B).
(§3) Its molecular weight was about 3.1 kDa as measured by SDS-PAGE and the isoelectric point (pI) was about 8.1 (FIGS. 2A and 2B).
(§4) Its molecular weight was about 2.1 kDa as determined by SDS-PAGE electrophoresis and its isoelectric point was about 8.9 (FIGS. 3A and 3B).

S. enteritidis = experiment: as above; type: cell-based; conditions: isolated signal peptide
Method: as §1, §2, §3, §4

[1] = Isoelectric point by isoelectrofocusing; type: physicochemical
Excerpt: FIGS. 1A and 1B are photographs showing the direct detection of signal peptide and bacteriocin OR-7 after SDS-PAGE (A) and isoelectrofocusing (B). […] In FIG. 1A Lane 1-Molecular Mass Markers LMW Range 2,100-12,500 (Amersham Pharmacia Biotech): 2,100; 5,780; 8,400; 12,500 Da. […] Lane 3 contained pI standards (Protein Test Mixture, I Marker Proteins, Serva): 10.0, 9.2, 8.1, 6.9, 5.5, 4.3.
FIGS. 2A and 2B are photographs showing direct detection of signal peptide and bacteriocin 50-52 after SDS-PAGE (A) and isoelectrofocusing (B). […] Lane 3 contained pI standards (Protein Test Mixture, I Marker Proteins, Serva): 10.0, 8.1, 7.9, 6.4, 5.5, 4.3, 4.1, and 3.8.
FIGS. 3A and 3B are photographs showing the direct detection of signal peptide and bacteriocin 760 after SDS-PAGE(A) and isoelectrofocusing (B). […] Lane 3 contained pI standards (Protein Test Mixture, I Marker Proteins, Serva): 10.0, 8.1, 7.9, 6.4, 5.5, 4.3, 4.1, and 3.8.
At the end of 14 hours the supernatant from the cultures was placed into 500 ml centrifuge flasks with about one milliliter of regenerated Sepharose SP Fast Flow (v/v 500: 1). This was incubated for approximately 1 hour at room temperature with stirring. The suspension was then washed with about 100 ml of a 0.2 M TRIS-HCl buffer pH approximately 6.4. The bacteriocins were eluted by centrifugation with about 100 ml of approximately 0.2 M K2HPO4, pH of about 5.8 at about 7,000×g for approximately 10 minutes. Antagonistic activity of the bacteriocin fractions against C. jejuni and S. enteritidis was assessed using a Spot Test as described above. The level of purity of the bacteriocin fractions was determined by SDS-PAGE. The isoelectric points of the fractions were determined by isoelectric focusing. Concentrations of protein for all bacteriocin fractions were determined at 215 nm using a spectrophotometer.

[2] = system: Lactobacillus salivarius PVD-32; experiment: Influence of signal peptide on bacteriocin OR-7 production, flask culture (fraction protein at 215 nm, activity by Spot Test against C. jejuni and S. enteritidis); type: cell-based
[3] = system: Streptococcus cricetus LWP 760; experiment: Influence of signal peptide on bacteriocin 760 production, flask culture (fraction protein at 215 nm, activity by Spot Test against C. jejuni and S. enteritidis); type: cell-based
[4] = 10% B-B, producer PVD-32 + inducer LWP-252, LWP 760 peptide 0.1 mg
[5] = LWP 760 + LWP320, 0.001 mg peptide
[6] = LWP 760 + LWP 320, 0.001 mg peptide added after about 2 hours
[7] = LWP 760 + LWP 320, 0.001 mg peptide added after about 4 hours
[8] = LWP 760 + LWP 320, 0.001 mg peptide added after about 6 hours
[9] = LWP 760 + LWP 320, 0.01 mg peptide
[10] = LWP 760 + LWP 320, 0.01 mg peptide added after about 2 hours
[11] = LWP 760 + LWP 320, 0.01 mg peptide added after about 4 hours
[12] = LWP 760 + LWP 320, 0.01 mg peptide added after about 6 hours
[13] = LWP 760 + LWP 320, 0.1 mg peptide
[14] = LWP 760 + LWP 320, 0.1 mg peptide added after about 2 hours
[15] = LWP 760 + LWP 320, 0.1 mg peptide added after about 4 hours
[16] = LWP 760 + LWP 320, 0.1 mg peptide added after about 6 hours
[17] = LWP 760, no inducer, 0.001 mg peptide
[18] = LWP 760, no inducer, 0.001 mg peptide added after about 2 hours
[19] = LWP 760, no inducer, 0.001 mg peptide added after about 4 hours
[20] = LWP 760, no inducer, 0.001 mg peptide added after about 6 hours
[21] = LWP 760, no inducer, 0.01 mg peptide
[22] = LWP 760, no inducer, 0.01 mg peptide added after about 2 hours
[23] = LWP 760, no inducer, 0.01 mg peptide added after about 4 hours
[24] = LWP 760, no inducer, 0.01 mg peptide added after about 6 hours
[25] = LWP 760, no inducer, 0.1 mg peptide
[26] = LWP 760, no inducer, 0.1 mg peptide add after about 6 hours
[27] = LWP 760, no inducer, 0.1 mg peptide added after about 2 hours
[28] = LWP 760, no inducer, 0.1 mg peptide added after about 4 hours

WNKYKTNWVLSVCNTGCACAAVKGLT (listed as Streptococcus cricetus) [LWP 760 Signal Peptide, signal peptide isolated from Streptococcus cricetus LWP 760, stimulates bacteriocin 760 production]
62.7 mg protein/liter: mg protein/liter [2, 4]
1: Increase in amount of protein vs. control [3, 17] | Increase in amount of protein vs. control [3, 18] | Increase in amount of protein vs. control [3, 19] | Increase in amount of protein vs. control [3, 20] | Increase in amount of protein vs. control [3, 21] | Increase in amount of protein vs. control [3, 22] | Increase in amount of protein vs. control [3, 23] | Increase in amount of protein vs. control [3, 24]
693 mg: Protein Produced from 1 liter Culture Fluid [3, 11]
5,286,580 Au/mg: Specific Activity [3, 25] | Specific Activity [3, 26] | Specific Activity [3, 27] | Specific Activity [3, 28]
1,638,840 AU/ml: Activity [3, 5] | Activity [3, 6] | Activity [3, 7] | Activity [3, 8] | Activity [3, 13] | Activity [3, 14] | Activity [3, 15] | Activity [3, 16] | Activity [3, 17] | Activity [3, 18] | Activity [3, 19] | Activity [3, 20] | Activity [3, 21] | Activity [3, 22] | Activity [3, 23] | Activity [3, 24] | Activity [3, 25] | Activity [3, 26] | Activity [3, 27]
does not increase: yield of bacteriocin OR-7 versus the control ([2]; signal peptide of another strain added to PVD-32 + LWP-252)
92.4 mg: Protein Produced from 1 liter Culture Fluid [3, 13]
0.19 Mg/ml: Protein Concentration [2, 4]
5,121,375 Au/mg: Specific Activity [3, 5] | Specific Activity [3, 6] | Specific Activity [3, 7] | Specific Activity [3, 8]
0.30 mg/mL: Protein Concentration [3, 17] | Protein Concentration [3, 18] | Protein Concentration [3, 19] | Protein Concentration [3, 20] | Protein Concentration [3, 22] | Protein Concentration [3, 23] | Protein Concentration [3, 24]
0.32 mg/mL: Protein Concentration [3, 5] | Protein Concentration [3, 6] | Protein Concentration [3, 7] | Protein Concentration [3, 8]
102,400 AU/ml: Activity [2, 4]
0.9: Increase in amount of protein vs. control [3, 13]
approximately 693 Mg: Protein Produced from 1 liter Culture Fluid ([3]; LWP 760 + LWP 320, 0.01 mg peptide added after about 4 hours, listed as signal peptide from LWP 760)
0.28 mg/mL: Protein Concentration [3, 13]
0.31 mg/mL: Protein Concentration [3, 25] | Protein Concentration [3, 26] | Protein Concentration [3, 27] | Protein Concentration [3, 28]
1.16: Increase in amount of protein vs. control [3, 14] | Increase in amount of protein vs. control [3, 15] | Increase in amount of protein vs. control [3, 16]
5,853,000 Au/mg: Specific Activity [3, 13]
5.2: Increase in amount of protein vs. control [3, 9] | Increase in amount of protein vs. control [3, 10] | Increase in amount of protein vs. control [3, 12]
about 8.9: isoelectric point (pI) [1]
115.5 mg: Protein Produced from 1 liter Culture Fluid [3, 14] | Protein Produced from 1 liter Culture Fluid [3, 15] | Protein Produced from 1 liter Culture Fluid [3, 16]
7: Increase in amount of protein vs. control [3, 11]
538,947 AU/mg: Specific Activity [2, 4]
6,553,600 AU/ml: Activity [3, 10] | Activity [3, 12]
102.3 mg: Protein Produced from 1 liter Culture Fluid [3, 25] | Protein Produced from 1 liter Culture Fluid [3, 26] | Protein Produced from 1 liter Culture Fluid [3, 27] | Protein Produced from 1 liter Culture Fluid [3, 28]
514.8 mg: Protein Produced from 1 liter Culture Fluid [3, 9] | Protein Produced from 1 liter Culture Fluid [3, 10] | Protein Produced from 1 liter Culture Fluid [3, 12]
1.56 mg/mL: Protein Concentration [3, 9] | Protein Concentration [3, 10] | Protein Concentration [3, 12]
5,462,666 Au/mg: Specific Activity [3, 17] | Specific Activity [3, 18] | Specific Activity [3, 19] | Specific Activity [3, 20] | Specific Activity [3, 21] | Specific Activity [3, 22] | Specific Activity [3, 23] | Specific Activity [3, 24]
1.03: Increase in amount of protein vs. control [3, 25] | Increase in amount of protein vs. control [3, 26] | Increase in amount of protein vs. control [3, 27] | Increase in amount of protein vs. control [3, 28]
6,241,523 Au/mg: Specific Activity [3, 11]
0.35 mg/mL: Protein Concentration [3, 14] | Protein Concentration [3, 15] | Protein Concentration [3, 16]
0.95: Protein increase vs. Control [2, 4]
did not possess antagonistic activity: antagonistic activity (C. jejuni) | antagonistic activity (S. enteritidis)
105.6 mg: Protein Produced from 1 liter Culture Fluid [3, 5] | Protein Produced from 1 liter Culture Fluid [3, 6] | Protein Produced from 1 liter Culture Fluid [3, 7] | Protein Produced from 1 liter Culture Fluid [3, 8]
99 mg: Protein Produced from 1 liter Culture Fluid [3, 17] | Protein Produced from 1 liter Culture Fluid [3, 18] | Protein Produced from 1 liter Culture Fluid [3, 19] | Protein Produced from 1 liter Culture Fluid [3, 20] | Protein Produced from 1 liter Culture Fluid [3, 21] | Protein Produced from 1 liter Culture Fluid [3, 22] | Protein Produced from 1 liter Culture Fluid [3, 23] | Protein Produced from 1 liter Culture Fluid [3, 24]
0.3 mg/mL: Protein Concentration [3, 21]
4,201,025 Au/mg: Specific Activity [3, 9] | Specific Activity [3, 10] | Specific Activity [3, 12]
4,682,400 Au/mg: Specific Activity [3, 14] | Specific Activity [3, 15] | Specific Activity [3, 16]
1.06: Increase in amount of protein vs. control [3, 5] | Increase in amount of protein vs. control [3, 6] | Increase in amount of protein vs. control [3, 7] | Increase in amount of protein vs. control [3, 8]
6,533,600 AU/ml: Activity [3, 9]
13,107,200 AU/ml: Activity [3, 11]
2.1 mg/mL: Protein Concentration [3, 11]
